From publication PMC3169398 (Acta Crystallographica Section F: Structural Biology and …, 2011)

Tests used:
[1] = target: T1, Bp PPAT (tagged, MAHHHHHHMGTLEAQTQGPGS-ORF) (Burkholderia pseudomallei, UniProt Q3JW91); conditions: pH 4.6, 0.2 M ammonium sulfate, PEG 2000 MME; 1 mM coenzyme A added; active site; moiety of hydrolysed or disordered coenzyme A; weak density, adenine possibly partially occupied; may be part of disor
T1 construct: gene coaD

[2] = target: T2, Bp PPAT (tagless, GPGS-ORF) (Burkholderia pseudomallei, UniProt Q3JW91); conditions: 2.0 M ammonium sulfate; 10 mM ATP added to protein; ligand carried over from E. coli host; active site; occupancy 0.5
T2 construct: gene coaD
T2 sequence (Q3JW91 whole entry, looked up): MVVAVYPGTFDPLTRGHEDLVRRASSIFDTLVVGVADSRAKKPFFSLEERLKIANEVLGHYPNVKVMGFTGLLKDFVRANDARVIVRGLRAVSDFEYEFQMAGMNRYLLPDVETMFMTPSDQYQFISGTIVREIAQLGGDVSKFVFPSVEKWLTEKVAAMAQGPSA

T1 sequence (Q3JW91 whole entry, looked up): as above

| SMILES | X-ray crystal structure, 1.6 Å [1] | X-ray crystal structure, 2.1 Å [2] |
| --- | --- | --- |
| Nc1ncnc2[nH]cnc12 [adenine] | We noted modest omit electron density for the adenine ring, which was also modelled | – |
| CC(C)(COP(=O)(O)OP(=O)(O)OC[C@H]1O[C@@H](n2cnc3c(N)ncnc32)[C@H](O)[C@@H]1O)[C@@H](O)C(=O)NCCC(=O)NCCS [dephospho-coenzyme A] | – | clear evidence but weak electron density for dephospho-coenzyme A in the active site |
